Data published in patent US20240374763A1, “DIAGNOSIS AND MONITORING USING EXTRADOMAIN-B FIBRONECTIN TARGETED PROBES” (Case Western Reserve University, priority 2020, published 2024).
No end group written: not given here.

Columns and labels:
Format in all cases: in vivo, mice
MDA-MB-231 tumors = assay: MRMI-mediated monitoring of therapeutic response, MDA-MB-231 tumors; conditions: pretreatment MDA-MB-231 tumors, MT218 0.1 mmol/kg, first 30 min
Protocol: The targeted MRI contrast agent ZD2-N3-Gd(HP-DO3A) (MT218) was provided by Molecular Theranostics (Cleveland, OH) and was synthesized. MR images of the mice bearing MDA-MB-231 or Hs578T tumors were acquired on a 3T MRS 3000 scanner (MRS Solutions, Surrey, UK) with a mouse short quad coil. T1-weighted images were acquired following intravenous injection of MT218 at dose of 0.1 mmol/kg using a fast spin echo (FSE) axial sequence with respiratory gating (TR=305 ms, TE=11 ms, FA=90°, FOV=40×40 mm, slice thickness=1 mm, slice number=15, Nav=2, matrix=256×256). Images were acquired before and at 10, 20, and 30 min after injection of MT218. MRMI was performed before the treatment and then at week 6 post-nanoparticle treatments for MDA-MB-231 and Hs578T tumors. MRI data and image processing was conducted using FIJI (FIJI is just ImageJ) software. The contrast-to-noise ratios (CNRs) of tumors were calculated as the difference of the mean tumor intensity and the mean muscle intensity divided by the standard deviation of the noise.

LNCaP-CXCR2 tumors = assay: MRMI with MT218, LNCaP-CXCR2 xenografts; conditions: 0.04 mmol Gd/kg, 20 min post-injection
Text: (§1) Xenograft models were established by subcutaneous flank injections in athymic nu/nu mice for the 4 prostate cancer cells and tested with MRMI using 0.04 mmol Gd/kg of MT218.

DLD1-DR tumors = assay: MRMI of EDB-FN with MT218, DLD1-DR xenografts
Protocol: Nude athymic mice (6-week-old nu/nu females) were purchased from The Jackson Laboratory (Bar Harbor, […]) and housed in the Animal Facility at CWRU. All the animal experiments were performed according to the protocol approved by the IACUC of CWRU. For assessment of drug resistance, 2 drug-resistant and 2 non-drug-resistant models were set up. About 3-4×10^6 DLD-1, RKO, DLD1-DR, and RKO-DR cells suspended in Matrigel-PBS mixture (1:1) were subcutaneously injected in the left flanks of nude mice (100 μL per mouse, 5 mice per group×4 models=20 mice). After 9 days when the tumors reached 100-200 mm3, MRMI was performed on the 4 xenograft models with 40 μmol/kg dose of MT218. The animals were then euthanized, and the tumors were harvested for post-mortem histology and IHC.
MT218 was synthesized as previously described. Ayat, N. R., et al., ACS Med Chem Lett, 2018. 9(7): p. 730-735. Briefly, click reaction between alkynyl-ZD2 and N3-Gd(HP-DO3A) was performed in the presence of CuSO4 and ascorbate at room temperature, followed by FLASH chromatography purification and validation of MT218 by MALDI-TOF mass spectrometry (m.w. 1443). For assessment of drug resistance and therapeutic monitoring, MRMI was performed in a 3T MRS 3000 scanner (MR Solutions, Surrey, UK) with a mouse short quad coil. The mice were anesthetized with isofluorane and tail vein catheter was setup. T1-weighted MR images were obtained before (pre-contrast) and 25 min after injection (post-contrast) of 40 μmol/kg dose of MT218 [ZD2-N3—Gd(HP-DO3A)]. The following two sequences were used with respiratory gating: axial fast spin echo (FSE) (TR=305 ms, TE=11 ms, FA=90°, FOV=40 mm×40 mm, slice thickness=1 mm, slice number=15, Nav=2, matrix=256×256) and coronal FSE (TR=305 ms, TE=11 ms, FA=90°, FOV=90 mm×90 mm, slice thickness=1 mm, slice number=20, Nav=1, matrix=248×512). […] Contrast-to-noise ratios (CNRs) were calculated as (mean tumor intensity—mean muscle intensity)/standard deviation of noise. […]

PC3-DR tumors = assay: MRMI with MT218, PC3-DR xenografts; conditions: 0.04 mmol Gd/kg, 20 min post-injection, p=0.07
Text: as §1

C4-2 tumors = assay: MRMI with MT218, C4-2 xenografts; conditions: 0.04 mmol Gd/kg, 20 min post-injection
Text: as §1

[1] = DLD1-DR over DLD-1 tumors, 40 μmol/kg MT218

## ZD2-N3-Gd(HP-DO3A) (TVRTSAD; also: conjugated to Gd(HP-DO3A) by click reaction of alkynyl-ZD2 with N3-Gd(HP-DO3A), residue of attachment not given here, Gd complex) [MT218, EDB-FN-targeted MRI contrast agent; ZD2 peptide conjugated to the clinical macrocyclic agent Gd(HP-DO3A)]
MDA-MB-231 tumors
  signal enhancement vs pre-contrast: Strong signal enhancement
LNCaP-CXCR2 tumors
  increase of CNR: ~3 fold
DLD1-DR tumors; [1]
  higher CNRs over the non-resistant tumors: 2.2 fold
  increase in CNR over the non-resistant tumors: 120%
DLD1-DR tumors; DLD1-DR tumors, 40 μmol/kg MT218, 25 min post-injection
  higher CNRs over pre-contrast: 3.3 fold
PC3-DR tumors
  CNR over the pre-contrast: 1.6 fold
C4-2 tumors
  increase of CNR: ~3 fold
